For assay [1], the system named is BPAE co-culture clones (cortical stem cells). In words: Inhibition of Notch activation in endothelial co-cultured cortical stem cell clones. It is filed as cell-based, mouse. The settings on record: BPAE co-culture clones treated for 6 hours, 50 μM, vs DMSO vehicle. The protocol: γ-secretase inhibitor II (Calbiochem, 50 μM) in DMSO was added to co-cultured cells after 4 days for 6 hours. The same amount of DMSO was used as vehicle control. The cells were then fixed and stained for β-tubulin III and double-labelled for Nestin or β-catenin, and the stained cells were quantified.

In assay [2] the test system is cortical stem cell clones. Briefly: Clonal growth of cortical stem cells with added soluble growth factors (without feeder cells). It is filed as cell-based, mouse. The settings on record: for duplication of the effect of endothelial co-culture on clonal growth: factor added at 10-50 ng/ml to serum-free medium with FGF2, no feeder cells. The protocol:
Embryonic cerebral cortices and adult SVZ were dissected and dissociated as described (18-20). Single cells were plated into poly-l-lysine-coated 6-well plates (Costar) at clonal density (2000-4000 cells/well) and cultured in basal serum-free medium consisting of DMEM, B27, N2, NAC and 10 ng/ml FGF2 (19,20). To test the effects of soluble growth factors (PDGF, CNTF, TGFβ, IGF1, IL1, IL6, G-CSF, M-CSF, GM-CSF, LIF, BDNF, Steel factor, VEGF or EGF), each factor was added to serum-free medium with FGF2 at a range of 10-50 ng/ml, and clonal growth (cell number and generation of neurons and glia) was assessed (without co-cultured feeder cells). LIF and VEGF were also tested in combination, each added at 10 ng/ml into serum-free medium, with and without FGF2.

Starred links: 1 amine or outer side, 2 acyl side, 3 side chain; linkers in the order of their positions; H or OH if unused. Non-standard residues stand in square brackets, D forms with d. Residues, ends and D or L forms follow the SMILES beside them. *: point of attachment. X1 = CC(N[*:1])C(=O)C(F)(F)C(=O)[*:2]; Boc = CC(C)(C)OC(=O)*

In the case of `CCC(C)C(NC(=O)C(NC(=O)OC(C)(C)C)C(C)C)C(=O)NC(C)C(=O)C(F)(F)C(=O)NC(C(=O)NC(C(=O)OC)C(C)CC)C(C)C` (centres unmarked) [γ-secretase inhibitor II] (Boc-VI[X1]VI-OMe; configuration not given here), in assay [1], the β-catenin staining entry is “significantly decreased” and the β-tubulin-III staining result is “significantly increased”.
For the compound “EGF: soluble growth factor (NSDSECPLSHDGYCLHDGVCMYIEALDKYACNCVVGYIGERCQYRDLKWWELR; Epidermal growth factor; UniProt P01133 971-1023, looked up)”, in assay [2], the “duplication of the effect of endothelial co-culture on clonal growth” value (“duplication” below) is on record as “none duplicated the result we see from endothelial co-cultures”.
For “FGF2: soluble growth factor in basal serum-free medium”, in assay [2] (FGF2 alone), the “neural stem cell proliferation” value was “promotes neural stem cell proliferation” and the “neural stem cell self-renewal” value is given as “cannot alone maintain their self-renewal”. Besides, the “duplication” value in assay [2] is “none duplicated the result we see from endothelial co-cultures”.
For the compound GM-CSF: soluble growth factor, the “duplication” value in assay [2] was “none duplicated the result we see from endothelial co-cultures”.
In the case of IGF1: soluble growth factor, the “duplication” value in assay [2] is “none duplicated the result we see from endothelial co-cultures”.
Take IL6: soluble growth factor: in assay [2], the “duplication” value is listed as “none duplicated the result we see from endothelial co-cultures”.
As for LIF: soluble growth factor, the “duplication” value in assay [2] is reported as “none duplicated the result we see from endothelial co-cultures”.
The same measure, in the same setting: the value for PDGF was “none duplicated the result we see from endothelial co-cultures”; that for Steel factor: soluble growth factor was “none duplicated the result we see from endothelial co-cultures”.
TGFβ: the “duplication” value in assay [2] was “none duplicated the result we see from endothelial co-cultures”.
Take VEGF: the “duplication” value in assay [2] is on record as “Neither factor, alone or in combination, duplicated the effect of endothelial factors”.

The record behind these values is US7901936B2, “Method for stimulating self-renewal of neural stem cells and enhancing neurogenesis” (Albany Medical College, priority 2004, dated 2011).
